Measured values taken from patent US12310364B2, “Safened compositions comprising pyridine carboxylate herbicides and cloquintocet” (Corteva Agriscience LLC, priority 2018, dated 2025).
Values joined by “and” are separate entries in the source; they are usually repeats but may differ in a detail not shown here. Identical values can stand only once.

What was measured:
Assay type in all cases: in vivo
[1] = system: Triticum aestivum (spring wheat), TRZAS; assay: Greenhouse postemergence safening trial, visual injury on spring wheat
Method: (§1) Greenhouse Trial Methodology-Evaluation of Postemergence Herbicidal […] in Crops […] When required to ensure good germination and healthy plants, a fungicide treatment and/or other chemical or physical treatment was applied. The plants were grown for 7-36 days (d) in a greenhouse with an approximate 14-hour (h) photoperiod which was maintained at about 23° C. during the day and 22° C. during the night. Nutrients and water were added on a regular basis and supplemental lighting was provided with overhead metal halide 1000-Watt lamps as necessary. The plants were employed for testing when they reached the second or third true leaf stage. Emulsifiable concentrates of each of each pyridine carboxylate herbicide (Compound A or Compound B) were prepared at 100 grams acid equivalent per liter (g ae/L). […] The concentrated stock solutions were further diluted with an aqueous mixture of 1.25% […] or MSO® Concentrate with LECI-TECH® to obtain stock solutions at reduced application rates for each herbicide. Spray solutions of the herbicide combinations (Compound A or Compound B plus safener) were prepared by adding weighed amounts or aliquots of the safener to the stock solutions of Compound A or Compound B to form 12-mL spray solutions in two-way combinations. […] Control plants were sprayed in the same manner with the solvent blank. All herbicide (component a) application rates are given as “g ae/ha” and all safener (component b) application rates are given as “g ai/ha.” The treated plants and control plants were placed in a greenhouse as described above and watered by sub-irrigation to prevent wash-off of the test compounds.

[2] = system: Avena sativa (common oat), AVESA; assay: Greenhouse postemergence safening trial, visual injury on common oat
Method: as §1

[3] = system: Matricaria inodora (false chamomile), MATIN; assay: Greenhouse postemergence trial, visual injury on false chamomile
Text: (§2) Greenhouse Trial Methodology—Evaluation of Postemergence Herbicidal Safening in Crops
(§3) Seeds of the desired test plant species were planted in a 90:10% v/v (volume/volume) mixture of PRO-MIX® BX (Premier Tech Horticulture, Quakertown, PA, USA) and PROFILE® GREENS GRADE™ (Profile Products LLC, Buffalo Grove, IL, USA) planting mixture, which typically has a pH of 5.2 to 6.2 and an organic matter content of at least 50 percent, in plastic pots with a surface area of 103.2 square centimeters (cm^2). When required to ensure good germination and healthy plants, a fungicide treatment and/or other chemical or physical treatment was applied. The plants were grown for 7-36 days (d) in a greenhouse with an approximate 14-hour (h) photoperiod which was maintained at about 23° C. during the day and 22° C. during the night. Nutrients and water were added on a regular basis and supplemental lighting was provided with overhead metal halide 1000-Watt lamps as necessary. The plants were employed for testing when they reached the second or third true leaf stage.
(§4) Emulsifiable concentrates of each of each pyridine carboxylate herbicide (Compound A or Compound B) were prepared at 100 grams acid equivalent per liter (g ae/L). An aliquot of each emulsifiable concentrate was placed in a 25 mL glass vial and diluted with an aqueous mixture of 1.25% (v/v) ACTIROB® B esterified rapeseed oil (Bayer Crop Science, Research Triangle Park, NC, USA) or MSO® Concentrate with LECI-TECH® methylated soybean oil (Loveland Products, Loveland, CO, USA) to obtain concentrated stock solutions at the highest application rate for each herbicide, based upon a 12 milliliter (mL) application volume at a rate of 187 liters per hectare (L/ha). The concentrated stock solutions were further diluted with an aqueous mixture of 1.25% v/v ACTIROB® B or MSO® Concentrate with LECI-TECH® to obtain stock solutions at reduced application rates for each herbicide. Spray solutions of the herbicide combinations (Compound A or Compound B plus safener) were prepared by adding weighed amounts or aliquots of the safener to the stock solutions of Compound A or Compound B to form 12-mL spray solutions in two-way combinations.
(§5) The spray solutions were applied to the plant material with an overhead Mandel track sprayer equipped with 8002E nozzles calibrated to deliver 187 L/ha over an application area of 0.503 square meters (m^2) at a spray height of 18 inches (43 centimeters (cm)) above the average plant canopy. Control plants were sprayed in the same manner with the solvent blank. All herbicide (component a) application rates are given as “g ae/ha” and all safener (component b) application rates are given as “g ai/ha.”
(§6) The treated plants and control plants were placed in a greenhouse as described above and watered by sub-irrigation to prevent wash-off of the test compounds. After 20-22 d, the condition of the test plants as compared with that of the control plants was determined visually and scored on a scale of 0 to 100 percent where 0 corresponds to no injury and 100 corresponds to complete kill.

[4] = system: Anthemis arvensis (field chamomile), ANTAR; assay: Greenhouse postemergence trial, visual injury on field chamomile
Text: as §2, §3, §4, §5, §6

[5] = system: Brassica napus (winter rape), BRSNW; assay: Greenhouse postemergence trial, visual injury on winter rape
Method: as §1

[6] = system: Polygonum convulvus (wild buckwheat), POLCO; assay: Greenhouse postemergence trial, visual injury on wild buckwheat
Text: as §2, §3, §4, §5, §6

[7] = system: common sunflower (HELAN, Helianthus annuus); assay: Greenhouse postemergence trial, visual injury on common sunflower
Text: as §2, §3, §4, §5, §6

[8] = system: wild oat (AVEFA, Avena fatua); assay: Greenhouse postemergence trial, visual injury on wild oat; conditions: Table 19
Text: as §2, §3
as §4, with “combinations. […]” for “combinations.”
as §6

[9] = system: Canada horseweed (ERICA, Erigeron canadensis); assay: Greenhouse postemergence trial, visual injury on Canada horseweed; conditions: Table 19
Text: as §2, §3
as §4, with “combinations. […]” for “combinations.”
as §6

[10] = system: ivyleaf morningglory (IPOHE, Ipomoea hederacea); assay: Greenhouse postemergence trial, visual injury on ivyleaf morningglory; conditions: Table 19
Text: as §2, §3
as §4, with “combinations. […]” for “combinations.”
as §6

[11] = system: giant foxtail (SETFA, Setaria faberi); assay: Greenhouse postemergence trial, visual injury on giant foxtail; conditions: Table 19
Text: as §2, §3
as §4, with “combinations. […]” for “combinations.”
as §6

[12] = Compound A 20 g/ha alone, Table 15
[13] = Compound A 40 g/ha alone, Table 14
[14] = Compound A 40 g/ha alone, Table 16
[15] = Compound A 20 g/ha alone, Table 19
[16] = CQC-mexyl 5 g/ha alone, Table 15
[17] = CQC-mexyl 10 g/ha alone, Table 15
[18] = CQC-mexyl 10 g/ha alone, Table 16
[19] = CQC-mexyl 20 g/ha alone, Table 15
[20] = CQC-mexyl 20 g/ha alone, Table 16
[21] = CQC-mexyl 40 g/ha alone, Table 14
[22] = CQC-mexyl 40 g/ha alone, Table 15
[23] = CQC-mexyl 40 g/ha alone, Table 16
[24] = CQC-mexyl 80 g/ha alone, Table 16
[25] = CQC-mexyl 20 g/ha alone, Table 19
[26] = CQC-mexyl 40 g/ha alone, Table 19
[27] = CQC-mexyl 80 g/ha alone, Table 19

With N#CCOC(=O)c1nc(-c2ccc3cc[nH]c3c2F)c(F)c(N)c1Cl [Compound A, cyanomethyl 4-amino-3-chloro-5-fluoro-6-(7-fluoro-1H-indol-6-yl)pyridine-2-carboxylate] the “% visual injury, Ob” value [1, 12] was 15%, the “% visual injury, Ob” value [1, 13] was 45% and the “% visual injury, Ob” value [1, 14] was 40%. The “% visual injury, Ob” value ([1]; herbicide alone 20 g/ha) was 15% and 25%, the “% visual injury, Ob” value ([1]; herbicide alone 40 g/ha) was 45% and 40% and 23% and the “% visual injury, Ob” value [2, 13] was 0%. For the same compound, the “% visual injury, Ob” value ([2]; herbicide alone 40 g/ha) was 0%, the “% visual injury, Ob” value [3, 14] was 100% and the “% visual injury, Ob” value ([3]; herbicide alone 40 g/ha) was 100%. The “% visual injury, Ob” value [4, 12] was 95%, the “% visual injury, Ob” value ([4]; herbicide alone 20 g/ha) was 95% and the “% visual injury, Ob” value [5, 12] was 70%. The “% visual injury, Ob” value [5, 15] was 85%, the “% visual injury, Ob” value ([5]; herbicide alone 20 g/ha) was 70% and 95% and the “% visual injury, Ob” value [6, 15] was 100%. The “% visual injury, Ob” value [7, 15] was 95%, the “% visual injury, Ob” value ([7]; Compound A 40 g/ha alone, Table 17) was 100% and the “% visual injury, Ob” value ([7]; Compound A 40 g/ha alone, Table 18) was 100%. The “% visual injury, Ob” value ([8]; Compound A 20 g/ha alone) was 0%, the “% visual injury, Ob” value ([9]; Compound A 20 g/ha alone) was 95% and the “% visual injury, Ob” value ([10]; Compound A 20 g/ha alone) was 0%. For the same compound, the “% visual injury, Ob” value ([11]; Compound A 20 g/ha alone) was 65%.
For CCCCCC(C)OC(=O)COc1ccc(Cl)c2cccnc12 (stereo not shown) [CQC-mexyl, cloquintocet-mexyl], the “% visual injury, Ob” value [1, 16] was 0%, the “% visual injury, Ob” value [1, 17] was 0% and the “% visual injury, Ob” value [1, 18] was 0%. The “% visual injury, Ob” value [1, 19] was 0%, the “% visual injury, Ob” value [1, 20] was 0% and the “% visual injury, Ob” value [1, 21] was 0%. The “% visual injury, Ob” value [1, 22] was 0%, the “% visual injury, Ob” value [1, 23] was 0% and the “% visual injury, Ob” value [1, 24] was 0%. The “% visual injury, Ob” value ([1]; safener alone 5 g/ha) was 0%, the “% visual injury, Ob” value ([1]; safener alone 10 g/ha) was 0% and the “% visual injury, Ob” value ([1]; safener alone 20 g/ha) was 0%. The “% visual injury, Ob” value ([1]; safener alone 40 g/ha) was 0%, the “% visual injury, Ob” value [2, 21] was 0% and the “% visual injury, Ob” value ([2]; safener alone 40 g/ha) was 0%. The “% visual injury, Ob” value [3, 18] was 0%, the “% visual injury, Ob” value [3, 20] was 0% and the “% visual injury, Ob” value [3, 23] was 0%. The “% visual injury, Ob” value [3, 24] was 0%, the “% visual injury, Ob” value [4, 16] was 0% and the “% visual injury, Ob” value [4, 17] was 0%. The “% visual injury, Ob” value [4, 19] was 0%, the “% visual injury, Ob” value [4, 22] was 0% and the “% visual injury, Ob” value [5, 16] was 0%. The “% visual injury, Ob” value [5, 17] was 0%, the “% visual injury, Ob” value [5, 19] was 0% and the “% visual injury, Ob” value [5, 25] was 0%. For the same compound, the “% visual injury, Ob” value [5, 22] was 0%, the “% visual injury, Ob” value [5, 26] was 0% and the “% visual injury, Ob” value [5, 27] was 0%. The “% visual injury, Ob” value ([5]; safener alone 5 g/ha) was 0%, the “% visual injury, Ob” value ([5]; safener alone 10 g/ha) was 0% and the “% visual injury, Ob” value ([5]; safener alone 20 g/ha) was 0%. The “% visual injury, Ob” value ([5]; safener alone 40 g/ha) was 0%, the “% visual injury, Ob” value [6, 25] was 0% and the “% visual injury, Ob” value [6, 26] was 0%. For the same compound, the “% visual injury, Ob” value [6, 27] was 0%, the “% visual injury, Ob” value ([6]; safener alone 5 g/ha) was 0% and the “% visual injury, Ob” value ([6]; safener alone 10 g/ha) was 0%. The “% visual injury, Ob” value ([6]; safener alone 20 g/ha) was 0%, the “% visual injury, Ob” value ([6]; safener alone 40 g/ha) was 0% and the “% visual injury, Ob” value ([7]; CQC-mexyl 20 g/ha alone, Table 17) was 0%. For the same compound, the “% visual injury, Ob” value [7, 25] was 0%, the “% visual injury, Ob” value ([7]; CQC-mexyl 40 g/ha alone, Table 17) was 0% and the “% visual injury, Ob” value [7, 26] was 0%. For the same compound, the “% visual injury, Ob” value ([7]; CQC-mexyl 80 g/ha alone, Table 17) was 0%, the “% visual injury, Ob” value [7, 27] was 0% and the “% visual injury, Ob” value ([7]; CQC-mexyl 120 g/ha alone, Table 17) was 0%. For the same compound, the “% visual injury, Ob” value ([8]; CQC-mexyl 20 g/ha alone) was 0%, the “% visual injury, Ob” value ([8]; CQC-mexyl 40 g/ha alone) was 0% and the “% visual injury, Ob” value ([8]; CQC-mexyl 80 g/ha alone) was 0%. For the same compound, the “% visual injury, Ob” value ([9]; CQC-mexyl 20 g/ha alone) was 0%, the “% visual injury, Ob” value ([9]; CQC-mexyl 40 g/ha alone) was 0% and the “% visual injury, Ob” value ([9]; CQC-mexyl 80 g/ha alone) was 0%. The “% visual injury, Ob” value ([10]; CQC-mexyl 20 g/ha alone) was 0%, the “% visual injury, Ob” value ([10]; CQC-mexyl 40 g/ha alone) was 0% and the “% visual injury, Ob” value ([10]; CQC-mexyl 80 g/ha alone) was 0%. For the same compound, the “% visual injury, Ob” value ([11]; CQC-mexyl 20 g/ha alone) was 0%, the “% visual injury, Ob” value ([11]; CQC-mexyl 40 g/ha alone) was 0% and the “% visual injury, Ob” value ([11]; CQC-mexyl 80 g/ha alone) was 0%.
